Assay results reported in BigSolDB 2.1.

Cl.NC1CCSC1=O (racemic)
solubility (mole fraction)
Details	in 1,4-dioxane	in 2-butanone	in acetone	in acetonitrile	in dichloromethane	in ethanol	in ethyl acetate	in isopropanol	in methanol
283.15 K	–	0.000125	0.000115	4.5e-05	6.4e-05	0.00319	0.000238	0.000521	0.0154
288.15 K	–	–	–	–	0.000114	–	–	–	–
293.15 K	0.0005	0.00021	0.000202	8.7e-05	0.000171	0.00413	0.000281	0.000786	0.0187
298.15 K	–	–	–	–	0.000262	–	–	–	–
303.15 K	0.000691	0.000307	0.00026	0.000135	0.000356	0.00509	0.000342	0.00116	0.0226
308.15 K	0.000783	–	–	–	–	–	–	–	–
313.15 K	0.000872	0.000361	0.000331	0.000175	–	0.00627	0.000385	0.00154	0.0272
323.15 K	0.000995	0.000431	0.000439	0.000212	–	0.00766	0.000458	0.00187	0.0326
